Assay results reported in patent publication US9828379B2 (priority 2013, dated 2017).

Experiments:
[1] = biological target: T1, FAAH (Mus musculus, UniProt O08914); test: In vitro competitive activity-based protein profiling (Table 2, % inhibition at 1 μM); type: biochemical; settings: read-out: % Inhibition at 1 μM FAAH
T1 sequence (O08914 1-579): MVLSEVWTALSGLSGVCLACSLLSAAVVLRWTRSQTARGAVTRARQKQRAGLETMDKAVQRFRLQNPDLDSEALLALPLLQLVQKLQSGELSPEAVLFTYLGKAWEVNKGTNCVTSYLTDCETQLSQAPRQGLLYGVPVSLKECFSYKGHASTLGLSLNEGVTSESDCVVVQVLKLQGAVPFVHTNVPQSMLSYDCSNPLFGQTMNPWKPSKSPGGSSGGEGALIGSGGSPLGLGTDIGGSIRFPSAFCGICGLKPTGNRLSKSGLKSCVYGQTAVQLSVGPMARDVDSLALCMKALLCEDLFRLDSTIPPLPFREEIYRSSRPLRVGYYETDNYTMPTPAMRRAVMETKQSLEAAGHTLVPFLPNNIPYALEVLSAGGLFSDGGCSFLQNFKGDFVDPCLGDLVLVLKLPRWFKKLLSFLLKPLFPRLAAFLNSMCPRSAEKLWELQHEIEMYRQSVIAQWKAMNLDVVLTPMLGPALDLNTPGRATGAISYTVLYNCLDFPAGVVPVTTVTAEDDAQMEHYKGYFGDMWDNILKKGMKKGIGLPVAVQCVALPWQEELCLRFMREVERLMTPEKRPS

[2] = biological target: T2, ABHD6 (Mus musculus, UniProt Q8R2Y0); test: as above; type: biochemical; settings: read-out: % Inhibition at 1 μM ABHD6
T2 sequence (Q8R2Y0 1-336): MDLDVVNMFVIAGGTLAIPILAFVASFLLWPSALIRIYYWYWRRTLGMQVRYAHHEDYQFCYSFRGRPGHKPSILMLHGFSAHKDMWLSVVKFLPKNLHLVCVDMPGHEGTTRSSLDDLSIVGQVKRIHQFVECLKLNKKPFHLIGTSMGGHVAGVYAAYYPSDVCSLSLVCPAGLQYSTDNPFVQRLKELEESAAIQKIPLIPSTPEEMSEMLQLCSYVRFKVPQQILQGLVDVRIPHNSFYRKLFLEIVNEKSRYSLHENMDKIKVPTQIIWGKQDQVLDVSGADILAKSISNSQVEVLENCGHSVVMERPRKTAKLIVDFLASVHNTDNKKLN

[3] = biological target: T3, MAGL (Mus musculus, UniProt O35678); test: as above; type: biochemical; settings: read-out: % Inhibition at 1 μM MAGL
T3 sequence (O35678 1-303): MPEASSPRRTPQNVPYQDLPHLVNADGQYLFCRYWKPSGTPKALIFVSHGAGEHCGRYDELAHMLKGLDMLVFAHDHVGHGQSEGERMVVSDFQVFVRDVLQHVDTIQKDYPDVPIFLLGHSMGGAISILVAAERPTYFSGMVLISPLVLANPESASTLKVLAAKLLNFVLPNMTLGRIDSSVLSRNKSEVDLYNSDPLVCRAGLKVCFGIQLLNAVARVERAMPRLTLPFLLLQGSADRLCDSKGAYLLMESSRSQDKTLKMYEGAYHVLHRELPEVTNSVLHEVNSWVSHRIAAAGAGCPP
Method: After 30 min, FP—Rh (1.0 μL, 50 μM in DMSO) was added and the mixture was incubated for another 30 min at 37° C. Reactions were quenched with SDS loading buffer (50 μL-4×) and run on SDS-PAGE.
Cell lysates were diluted with mock proteomes for use in competitive ABPP experiments.

[4] = biological target: T4, Mouse brain MAGL (Mus musculus, UniProt O35678); test: Mouse brain proteomes from inhibitor treated mice (oral gavage, ABPP analysis); type: in vivo; settings: p.o., sacrificed 4 h following administration
T4 construct: from tissue; host or cells: brain of wild-type C57Bl/6J mice dosed by oral gavage
T4 sequence (O35678 1-303): T3 sequence (O35678 1-303)

[5] = biological target: T1, FAAH; test: biochemical; settings: in vitro competitive ABPP
[6] = biological target: T2, ABHD6; test: biochemical; settings: in vitro competitive ABPP
[7] = biological target: T3, MAGL; test: biochemical; settings: mouse; in vitro competitive ABPP; read-out: Mouse (IC50 value, nM) MAGL

| SMILES | inhibition at 1 µM [1] [%] | inhibition at 1 µM [2] [%] | inhibition at 1 µM [3] [%] | inhibition at 5 mg/kg [4] [%] | IC50 [5] [nM] | IC50 [6] [nM] | IC50 [7] [nM] |
| --- | --- | --- | --- | --- | --- | --- | --- |
| O=C(OC(C(F)(F)F)C(F)(F)F)N1CC2CN(Cc3ccc(Cl)cc3N3CCC4(CCNC4=O)CC3)CC2C1 (centres unmarked) [Example 38, 1,1,1,3,3,3-Hexafluoropropan-2-yl 5-[(4-chloro-2-[1-oxo-2,8-diazaspiro[4.5]decan-8-yl]phenyl)methyl]-octahydropyrrolo[3,4-c]pyrrole-2-carboxylate] | < 25 | < 25 | > 75 | ≤ 25 | > 10000 | 1000 to 10000 | < 100 |
| CS(=O)(=O)N1CC2(CCN(c3ccccc3CN3CC4CN(C(=O)OC(C(F)(F)F)C(F)(F)F)CC4C3)C2)C1 (centres unmarked) [Example 136, 1,1,1,3,3,3-hexafluoropropan-2-yl 5-[(2-[2-methanesulfonyl-2,6-diazaspiro[3.4]octan-6-yl]phenyl)methyl]-octahydropyrrolo[3,4-c]pyrrole-2-carboxylate] | < 25 | < 25 | > 75 | ≤ 25 | 1000 to 10000 | 1000 to 10000 | < 100 |
| O=C(OC(C(F)(F)F)C(F)(F)F)N1CC2CN(Cc3cccc(N4CCOCC4)c3C(F)(F)F)CC2C1 (centres unmarked) [Example 129, 1,1,1,3,3,3-hexafluoropropan-2-yl 5-[[3-(morpholin-4-yl)-2-(trifluoromethyl)phenyl]methyl]-octahydropyrrolo[3,4-c]pyrrole-2-carboxylate] | < 25 | < 25 | > 75 | ≥ 75 | 1000 to 10000 | 1000 to 10000 | < 100 |
| CC(C)n1cc(CN2CC3CN(C(=O)OC(C(F)(F)F)C(F)(F)F)CC3C2)c(-c2ccccc2Cl)n1 (centres unmarked) [Example 54, 1,1,1,3,3,3-Hexafluoropropan-2-yl 5-[[3-(2-chlorophenyl)-1-(propan-2-yl)-1H-pyrazol-4-yl]methyl]-octahydropyrrolo[3,4-c]pyrrole-2-carboxylate] | < 25 | 25 to 75 | > 75 | 25 to 75 | > 10000 | 100 to 1000 | < 100 |
| CC(=O)N1CCN(c2cc(C(C)C)ccc2CN2CC3CN(C(=O)OC(C(F)(F)F)C(F)(F)F)CC3C2)CC1 (centres unmarked) [Example 24, 1,1,1,3,3,3-Hexafluoropropan-2-yl 5-[[2-(4-acetylpiperazin-1-yl)-4-(propan-2-yl)phenyl]methyl]-octahydropyrrolo[3,4-c]pyrrole-2-carboxylate] | < 25 | 25 to 75 | > 75 | ≤ 25 | > 10000 | 1000 to 10000 | < 100 |
| CCn1cc(CN2CC3CN(C(=O)OC(C(F)(F)F)C(F)(F)F)CC3C2)c(-c2ccc(N3CCC3)cc2)n1 (centres unmarked) [Example 69, 1,1,1,3,3,3-Hexafluoropropan-2-yl 5-([3-[4-(azetidin-1-yl)phenyl]-1-ethyl-1H-pyrazol-4-yl]methyl)-octahydropyrrolo[3,4-c]pyrrole-2-carboxylate] | < 25 | 25 to 75 | > 75 | ≤ 25 | 1000 to 10000 | 1000 to 10000 | < 100 |
| CCn1cc(CN2CC3CN(C(=O)OC(C(F)(F)F)C(F)(F)F)CC3C2)c(-c2ccc(N3CCCCC3)cc2)n1 (centres unmarked) [Example 133, 1,1,1,3,3,3-hexafluoropropan-2-yl 5-([1-ethyl-3-[4-(piperidin-1-yl)phenyl]-1H-pyrazol-4-yl]methyl)-octahydropyrrolo[3,4-c]pyrrole-2-carboxylate] | < 25 | < 25 | > 75 | ≤ 25 | 1000 to 10000 | 1000 to 10000 | < 100 |
| CC(C)(C)c1cc(CN2CC3CN(C(=O)OC(C(F)(F)F)C(F)(F)F)CC3C2)n(-c2ccccc2Cl)n1 (centres unmarked) [Example 170, 1,1,1,3,3,3-hexafluoropropan-2-yl 5-[[3-tert-butyl-1-(2-chlorophenyl)-1H-pyrazol-5-yl]methyl]-octahydropyrrolo[3,4-c]pyrrole-2-carboxylate] | < 25 | 25 to 75 | > 75 | 25 to 75 | > 10000 | 1000 to 10000 | < 100 |
| O=C(OC(C(F)(F)F)C(F)(F)F)N1CC2CN(Cc3ccc(Cl)cc3N3CC4CCC(C3)O4)CC2C1 (centres unmarked) [Example 3, 1,1,1,3,3,3-Hexafluoropropan-2-yl 5-(2-(8-oxa-3-azabicyclo[3.2.1]octan-3-yl)-4-chlorobenzyl)hexahydropyrrolo[3,4-c]pyrrole-2(1H)-carboxylate] | 25 to 75 | 25 to 75 | > 75 | ≤ 25 | 1000 to 10000 | 1000 to 10000 | < 100 |
| Cn1cc(CN2CC3CN(C(=O)OC(C(F)(F)F)C(F)(F)F)CC3C2)c(-c2ccccc2Cl)n1 (centres unmarked) [Example 51, 1,1,1,3,3,3-Hexafluoropropan-2-yl 5-[[3-(2-chlorophenyl)-1-methyl-1H-pyrazol-4-yl]methyl]-octahydropyrrolo[3,4-c]pyrrole-2-carboxylate] | < 25 | 25 to 75 | > 75 | ≤ 25 | > 10000 | 1000 to 10000 | < 100 |
| Cc1c(CN2CC3CN(C(=O)OC(C(F)(F)F)C(F)(F)F)CC3C2)cccc1N1CCOCC1 (centres unmarked) [Example 47, 1,1,1,3,3,3-Hexafluoropropan-2-yl 5-[[2-methyl-3-(morpholin-4-yl)phenyl]methyl]-octahydropyrrolo[3,4-c]pyrrole-2-carboxylate] | 25 to 75 | 25 to 75 | > 75 | ≥ 75 | 1000 to 10000 | 1000 to 10000 | < 100 |
| Cn1cc(CN2CC3CN(C(=O)OC(C(F)(F)F)C(F)(F)F)CC3C2)c(-c2ccccc2)n1 (centres unmarked) [Example 50, 1,1,1,3,3,3-Hexafluoropropan-2-yl 5-((1-methyl-3-phenyl-1H-pyrazol-4-yl)methyl)hexahydropyrrolo[3,4-c]pyrrole-2(1H)-carboxylate] | < 25 | 25 to 75 | > 75 | 25 to 75 | 1000 to 10000 | 1000 to 10000 | < 100 |
| CCn1cc(CN2CC3CN(C(=O)OC(C(F)(F)F)C(F)(F)F)CC3C2)c(-c2cccc(N3CCOCC3)c2)n1 (centres unmarked) [Example 65, 1,1,1,3,3,3-Hexafluoropropan-2-yl 5-([1-ethyl-3-[3-(morpholin-4-yl)phenyl]-1H-pyrazol-4-yl]methyl)-octahydropyrrolo[3,4-c]pyrrole-2-carboxylate] | < 25 | < 25 | > 75 | ≤ 25 | 1000 to 10000 | 1000 to 10000 | < 100 |
| Cc1c(CN2CC3CN(C(=O)OC(C(F)(F)F)C(F)(F)F)CC3C2)cccc1N1C2CCC1COC2 (centres unmarked) [Example 127, 1,1,1,3,3,3-hexafluoropropan-2-yl 5-[(2-methyl-3-[3-oxa-8-azabicyclo[3.2.1]octan-8-yl]phenyl)methyl]-octahydropyrrolo[3,4-c]pyrrole-2-carboxylate] | < 25 | 25 to 75 | > 75 | 25 to 75 | 1000 to 10000 | 1000 to 10000 | < 100 |
